For experiment [1], the system named is guanosine. The experiment is described as follows: Reversibility of kethoxal derivatives by adjusting pH (kethoxal-guanosine adduct dissociation). The format is physicochemical.
In the next experiment the test system is Cells. The experiment is described as follows: Cell permeability and radical-mediated biotinylation of RNA from treated cells (dot blot). The format is cell-based. To be noted: cells treated 10 min, versus control sample. Here is the method:
A second set of test were performed to test cell permeability of phenol-kethoxal and diphenol-kethoxal and if the labeling enhances radical-mediated biotinylation. Cells were treated with phenol-kethoxal and diphenol-kethoxal for 10 min, respectively, and RNA isolated from treated cells. An in vitro biotinylation reaction was performed by mixing these kethoxal derivative-labeled RNAs with biotin-phenol, horseradish peroxidase (HRP), and H2O2, see FIG. 4. HRP is an enzyme that mimics APEX with higher radical generation activity in vitro. The biotinylated RNAs were purified and subjected to dot blot analysis.

For experiment [2], the system named is 12-mer synthetic RNA oligo containing four guanine bases. The experiment can be described thus: Labeling activity of phenol-kethoxal and diphenol-kethoxal on 12-mer synthetic RNA oligo (MALDI-TOF). The following applies: 10 min incubation. The format is biochemical. Here is the method: To test the labeling activity of phenol-kethoxal and diphenol-kethoxal, the two compounds were incubated with a 12-mer synthetic RNA oligo containing four guanine bases, respectively. After 10 min, the reactions were cleaned-up and analyzed by MALDI-TOF.

Experiment [3] has as its system guanosine. The experiment is described as follows: Reversibility of kethoxal derivatives using GTP for competition (LCMS of free guanosine). To be noted: 1:1 ratio. The format is physicochemical.
The mark [4] stands for this setting: pH = 5.8, 4 h after adjusting from pH 10.1, 1:1 ratio.
[5] abbreviates: pH = 5.8, 24 h after adjusting from pH 10.1, 1:1 ratio.
Setting [6] is: pH = 10.1, 10 min, kethoxal derivative and guanosine 1:1.
[7] abbreviates: pH = 5.8, 10 min after adjusting from pH 10.1, 1:1 ratio.

SMILES strings stand for the structures.

On to `[N-]=[N+]=NCCCC(=O)C=O` [drawing 70], for which the figures for the Conversion of guanosine in the experiment with guanosine [1] (setting [4]), with guanosine [1] (setting [5]) and with guanosine [1] (setting [6]) were 19.0%, 14.7% and 30.2%, respectively.
Take `[N-]=[N+]=NCCOC(F)C(=O)C=O` (stereo not shown) [drawing 74]: the Conversion of guanosine in the experiment on guanosine [1] (setting [7]) came out at 50.1%; with guanosine [1] (setting [4]) it was 57.1%; in the experiment on guanosine [1] (setting [5]) it was 58.2%; in the experiment with guanosine [1] (setting [6]), 46.2%.
The corresponding values for `CC(OCCN=[N+]=[N-])C(=O)C=O` (stereo not shown) [drawing 62] are 79.8%, 80.2%, 81.8% and 79.8%.
In the case of `O=CC(=O)c1ccccc1` [drawing 73], the Conversion of guanosine in the experiment with guanosine [1] (setting [7]) was 12.2%; in the experiment on guanosine [1] (setting [4]), 10.7%; with guanosine [1] (setting [5]), 12.7%; in the experiment on guanosine [1] (setting [6]), 28.3%.
`CC(C)(OCCN=[N+]=[N-])C(=O)C=O` [drawing 63]: the Conversion of guanosine in the experiment with guanosine [1] (setting [4]) was determined as 77.6%; in the experiment with guanosine [1] (setting [5]), 80.3%; with guanosine [1] (setting [6]), 77.0%.
On to `[N-]=[N+]=NCCOC(F)(F)C(=O)C=O` [drawing 75], for which the Conversion of guanosine with guanosine [1] (setting [7]) is listed as 49.2%; in the experiment on guanosine [1] (setting [4]) it was 55.1%; in the experiment on guanosine [1] (setting [5]), 54.7%; with guanosine [1] (setting [6]) it was 41.5%.
As to `CC(OCCn1cc(-c2ccc(O)c(O)c2)nn1)C(=O)C=O` (stereo not shown) [diphenol-kethoxal], in the experiment on Cells, the “Biotin signal of RNA from treated cells after HRP/biotin-phenol/H2O2 biotinylation” value is reported as “stronger biotin signals compared with the control sample”. The “Labeling activity on RNA oligo” value in experiment [2] is “label the oligo efficiently, with all four guanines on all oligo molecules modified”.
Take `CC(N=[N+]=[N-])C(=O)C=O` (stereo not shown) [drawing 66]: the Conversion of guanosine in the experiment on guanosine [1] (setting [7]) came out at 65.6%; with guanosine [1] (setting [4]), 65.2%; in the experiment with guanosine [1] (setting [5]), 58.7%; in the experiment with guanosine [1] (setting [6]), 65.9%.
`CC(OCCn1cc(-c2ccc(O)cc2)nn1)C(=O)C=O` (stereo not shown) [phenol-kethoxal]: the “Biotin signal of RNA from treated cells after HRP/biotin-phenol/H2O2 biotinylation” value in the experiment on Cells is reported as “stronger biotin signals compared with the control sample”. Moreover, the “Labeling activity on RNA oligo” value in experiment [2] was “label the oligo efficiently, with all four guanines on all oligo molecules modified”.
Regarding `[N-]=[N+]=NCCOCCC(=O)C=O` [drawing 72], the Conversion of guanosine in the experiment on guanosine [1] (setting [4]) is 16.6%; in the experiment with guanosine [1] (setting [6]), 19.7%.
Take `CC(Br)C(=O)C=O` (stereo not shown) [drawing 67]: the Conversion of guanosine is given as 64.3% in the experiment with guanosine [1] (setting [4]), 62.9% in the experiment with guanosine [1] (setting [5]) and 62.7% in the experiment on guanosine [1] (setting [6]).
The corresponding values for `CC(OC(=O)CN=[N+]=[N-])C(=O)C=O` (stereo not shown) [drawing 65] are 77.3%, 77.2% and 75.5%.
As to `O=CC(=O)c1ccc([N+](=O)[O-])cc1`, the “Conversion of guanosine under competition condition” value in the experiment on guanosine [3] (pH = 7.0, 10 min, excess GTP added after 10 min) is given as 48.0%; with guanosine [3] (pH = 7.0, 2 h, excess GTP competitor), 13.5%.
As to `CC(C(=O)C=O)N(C)C(=O)CN=[N+]=[N-]` (stereo not shown) [drawing 71], the values for the Conversion of guanosine with guanosine [1] (setting [4]), in the experiment with guanosine [1] (setting [5]) and in the experiment on guanosine [1] (setting [6]) were 31.9%, 26.5% and 35.6%, respectively.
In the case of `[N-]=[N+]=NCCOC(F)(F)C(=O)C=O` [drawing 90], the “Conversion of guanosine under competition condition” value is on record as 51.2% (pH = 10.1) in the experiment with guanosine [3] (pH = 10.1, 10 min, excess GTP added after 10 min); 42.4% (pH = 10.1) in the experiment with guanosine [3] (pH = 10.1, 2 h, excess GTP competitor); 22.2% (pH = 10.1) in the experiment with guanosine [3] (pH = 10.1, 24 h, excess GTP competitor).
Consider `[N-]=[N+]=NCCOCC(=O)C=O` [drawing 64], for which the Conversion of guanosine in the experiment with guanosine [1] (setting [4]) was 75.0%; with guanosine [1] (setting [5]) it was 76.1%; in the experiment with guanosine [1] (setting [6]) it was 74.6%.

Source of the values: patent publication US20220143198A1, “COMPOSITIONS AND METHODS RELATED TO TETHERED KETHOXAL DERIVATIVES” (The University of Chicago, priority 2019, published 2022).
